In brackets after ≈: the same amount, converted by molar mass. Where two headings read alike, the source gives them in different places.
Assays:
[1] = Solubility in water, filtrate content measured by HPLC; assay type: physicochemical; conditions: for solubility at 10 h: water, 25 °C, thermodynamic from solid
Experimental: High Performance Liquid Chromatogram (HPLC) analysis data are collected from Agilent 1260 and the chemical workstation is B.04. The corresponding parameters are as follows: chromatographic column Eclipst XDB-C18, 5 μm, 4.6×250 mm, H-005#, column temperature 25° C., flow rate 0.3 ml/min, mobile phase 13% acetonitrile and 87% water (0.0025M ammonium bicarbonate), wavelength 254 nm, sample size 10 μL and operation duration 20 min.
In 100 mL of water was added 20.0 mg of Form I prepared in preparation example 1 or 20 mg of Form II prepared in example 1, and stirred for 10 hours at 25° C., filtered, the content of the filtrate was directly measured by HPLC.

[2] = Storage stability at 25° C. and 60% RH; assay type: physicochemical; conditions: stored for 6 months at 25° C. and 60% RH
[3] = Stability test under high temperature and bright light, HPLC purity; assay type: physicochemical; conditions: for Change in value of maximum individual impurity content: increase
Experimental: High Performance Liquid Chromatogram (HPLC) analysis data are collected from Agilent 1260 and the chemical workstation is B.04. The corresponding parameters are as follows: chromatographic column […] XDB-C18, 5 μm, 4.6×250 mm, H-005#, column temperature 25° C., flow rate 0.3 ml/min, mobile phase 13% acetonitrile and 87% water (0.0025M ammonium bicarbonate), wavelength 254 nm, sample size 10 μL and operation duration 20 min. Form I of TR-701FA prepared in preparation example 1 and Form II of TR-701FA of the present invention were compared in the stability test by being stored for 10 days under conditions of high temperature and bright light. The high temperature was 80° C. and the light was 6,000 lx. HPLC purities and maximum individual impurity contents of the compounds were tested before and after the storage, and the results were shown in Table 3.

[4] = Isothermal adsorption curve (hygroscopicity); assay type: physicochemical; conditions: for hygroscopicity (in words): isothermal adsorption curve
Experimental: The Isothermal Adsorption Curve data are collected by TA Instruments Q5000 TGA. The instrument control software is Thermal Advantage and the analysis software is Universal Analysis. Generally, take 1 to 10 mg of the sample and place it in a platinum pan, and record weight changes of the sample during the course of the relative humidity changing from 0% to 80% then to 0%. Depending on samples, different adsorption and desorption steps may be used.

[5] = cited from earlier work
[6] = aqueous solution or acid solution; cited from earlier work
[7] = 0 day vs 10 days at 80° C. and 6,000 lx
[8] = high temperature (80° C.) and lighting (6,000 lx) for 10 days

| solubility at 10 h ([1]; at room temperature, read-out: water solubility) [µg/mL] | purity and crystalline form after storage [2] | HPLC purity ([3]; 0 day) [%] | Maximum individual impurity content ([3]; 0 day) [%] | Change in value of maximum individual impurity content [3, 7] [%] | HPLC purity [3, 8] [%] | Maximum individual impurity content [3, 8] [%] | solubility in water (in words) [1] | solubility at 10 h ([1]; stirred 10 hours at 25° C. (room temperature), filtrate by HPLC, read-out: solubility in water) [µg/mL] | Change in value of HPLC purity ([3]; 0 day vs 10 days at 80° C. and 6,000 lx, positive = decrease) [%] | weight change on isothermal adsorption curve ([4]; relative humidity range of 20% to 80% RH) | SMILES | hygroscopicity (in words) [4] | solubility relative to tedizolid (in words) [5] | stability in solution (in words) [6] |
| --- | --- | --- | --- | --- | --- | --- | --- | --- | --- | --- | --- | --- | --- | --- |
| 168 (≈ 373 µM) | remain unchanged | 98.3 | 1.6 | 0.1 | 98.4 | 1.7 | – | – | – | – | Cn1nnc(-c2ccc(-c3ccc(N4C[C@H](COP(=O)(O)O)OC4=O)cc3F)cn2)n1 [Form II of TR-701FA, (R)-3-(4-(2-(2-methyltetrazol-5-yl)pyridine-5-yl)-3-fluorophenyl)-5-hydroxymethyl oxazolidin-2-onedihydrogenphosphate] | lower hygroscopicity than the known Form I | – | – |
| – | – | – | – | – | – | – | – | – | – | – | Cn1nnc(-c2ccc(-c3ccc(N4C[C@H](COP(=O)(O)O)OC4=O)cc3F)cn2)n1 [TR-701FA, (R)-3-(4-(2-(2-methyltetrazol-5-yl)pyridine-5-yl)-3-fluorophenyl)-5-hydroxymethyl oxazolidin-2-onedihydrogenphosphate] | – | better solubility than tedizolid | stable in aqueous solution or acid solution |
| – | – | 98.7 | 1.3 | 1.2 | 96.6 | 2.5 | low solubility in water | 118 (≈ 262 µM) | 2.1 | approximately 1.56% | Cn1nnc(-c2ccc(-c3ccc(N4C[C@H](COP(=O)(O)O)OC4=O)cc3F)cn2)n1 [Form I of TR-701FA, (R)-3-(4-(2-(2-methyltetrazol-5-yl)pyridine-5-yl)-3-fluorophenyl)-5-hydroxymethyl oxazolidin-2-onedihydrogenphosphate] | high hygroscopicity | – | – |

From patent publication US10189870B2, “Crystalline form of oxazolidinone antibiotics and preparation method, composition and use thereof” (Hangzhou Pushai Pharmaceutical Technology Co., Ltd., priority 2014, dated 2019)
